Measured values: patent publication US20060223792A1, “Phenyl and pyridyl LTA4H modulators” (priority 2005, published 2006)

Columns and labels:
[1] = biological target: T1, recombinant human LTA4 hydrolase (rhLTA4H) (Homo sapiens, UniProt P09960); test: Recombinant human LTA4 hydrolase assay for LTA4 hydrolase inhibitor activity; assay type: biochemical; conditions: recombinant human LTA4H, LTB4 quantified by enzyme-linked immunoassay; average of one to three determinations; read-out: IC50
T1 construct: made in house; host or cells: Spodoptera frugiperda (Sf-9) cells, baculovirus (pFastBac1)
T1 sequence (P09960 1-611): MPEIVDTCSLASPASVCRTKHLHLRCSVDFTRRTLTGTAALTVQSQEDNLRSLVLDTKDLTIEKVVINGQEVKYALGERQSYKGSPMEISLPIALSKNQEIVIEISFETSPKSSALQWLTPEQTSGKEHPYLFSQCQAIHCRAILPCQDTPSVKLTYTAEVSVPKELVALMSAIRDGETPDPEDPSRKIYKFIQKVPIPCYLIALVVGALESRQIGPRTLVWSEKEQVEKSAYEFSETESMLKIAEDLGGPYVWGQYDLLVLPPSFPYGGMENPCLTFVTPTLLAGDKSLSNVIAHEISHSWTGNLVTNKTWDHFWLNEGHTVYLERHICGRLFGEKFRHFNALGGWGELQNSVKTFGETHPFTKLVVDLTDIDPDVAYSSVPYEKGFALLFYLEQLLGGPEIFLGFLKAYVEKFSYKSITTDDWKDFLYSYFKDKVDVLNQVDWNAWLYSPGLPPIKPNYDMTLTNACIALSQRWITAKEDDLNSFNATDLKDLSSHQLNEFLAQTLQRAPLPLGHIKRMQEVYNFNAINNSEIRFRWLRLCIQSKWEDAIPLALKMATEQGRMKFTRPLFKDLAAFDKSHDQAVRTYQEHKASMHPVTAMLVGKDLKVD
Method in brief: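 Sf-9-expressed rhLTA4H (36 ng) preincubated 10 min at rt with compound in 0.1 M potassium phosphate pH 7.4, 5 mg/mL fatty-acid-free BSA; 9 ng LTA4 free acid added, 10 min at rt in 225 μL. LTB4 measured by enzyme immunoassay; IC50 from 4-parameter fit, mean of one to three determinations.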

[2] = test system: ex vivo stimulated LTB4 production; test: Murine arachidonic acid-induced inflammation model: ex vivo stimulated LTB4 production in blood; conditions: Mus musculus; 30 mg/kg oral gavage, female Balb/c mice; blood taken 3 h after arachidonic acid, stimulated ex vivo with A23187; read-out: % Inh. LTB4
Procedure: Murine Arachidonic Acid-Induced Inflammation Model
LTA4H inhibitor compounds of the present invention were dissolved in 20% cyclodextran/H2O at a concentration of 3 mg/mL. The solutions were administered by oral gavage to female Balb/c mice weighing approximately 20 grams each (0.2 mL per mouse, 30 mg of LTA4H inhibitor compound per kg). Sixty minutes after being administered an LTA4 inhibitor, each mouse received topical application of 20 μL of arachidonic acid (100 mg/mL in acetone) to the left ear and 20 μL of acetone only to the right ear. After 3 h, the mice were sacrificed, blood was withdrawn in heparinized syringes, and 8 mm ear biopsies were taken. Ear biopsies were weighed to determine edema and then frozen at −80° C. until needed for determination of neutrophil influx.
One hundred-microliter aliquots of heparinized blood were added to wells of a microtiter plate, along with equal volumes of RPMI-1640 medium, and calcium ionophore A23187 was added to each sample well (final concentration=[…]). The microtiter plate contents were incubated for 10 min at 37° C. in a humidified incubator. The reaction was terminated by centrifugation (833×g, 10 min at 4° C.). Supernatants were analyzed for LTB4 by a commercially available enzyme-linked immunoassay (Cayman Chemical Co.) in accordance with the manufacturer's instructions. The percent inhibition of ex vivo stimulated LTB4 production (% Inh. LTB4) was determined by comparison to animals treated identically except that the solution admininstered by oral gavage was devoid of inhibitor compound.

| IC50 [1] | Structure (SMILES) | inhibition at 30 mg/kg [2] |
| --- | --- | --- |
| 0.017 µM | O=C1CCCN1C1CCN(Cc2ccc(OCCc3ccccc3)cc2)CC1 [Example 99, 1-[1-(4-Phenethyloxy-benzyl)-piperidin-4-yl]-pyrrolidin-2-one] | 68% |
| 0.004 µM | O=C(O)C1CCN(Cc2ccc(OCCCc3ccccc3)cc2)CC1 [Example 112, 1-[4-(3-Phenyl-propoxy)-benzyl]-piperidine-4-carboxylic acid] | 91% |
| 0.051 µM | O=C(O)C1CCN(CCOc2ccc(OCCCc3ccccc3)cc2)CC1 [Example 117, 1-{2-[4-(3-Phenyl-propoxy)-phenoxy]-ethyl}-piperidine-4-carboxylic acid] | 74% |
| 0.019 µM | O=C(O)C1CCN(CCc2ccc(OCCc3ccccc3)cc2)CC1 [Example 81, 1-[2-(4-Phenethyloxy-phenyl)-ethyl]-piperidine-4-carboxylic acid] | 78% |
| 0.01 µM | O=C(O)C1CCN(Cc2ccc(OCCc3ccccc3)cc2)CC1 [Example 96, 1-(4-Phenethyloxy-benzyl)-piperidine-4-carboxylic acid] | 80% |

| Structure (SMILES) | IC50 [1] | inhibition at 30 mg/kg [2] |
| --- | --- | --- |
| CN(C(=O)Oc1ccc(OCCN2CCC(O)(c3ccccc3)CC2)cc1)c1ccccc1 [Example 40, Methyl-phenyl-carbamic acid 4-[2-(4-hydroxy-4-phenyl-piperidin-1-yl)-ethoxy]-phenyl ester] | 0.073 µM | 79% |
